The record followed here is PubChem BioAssay AID1249 (Columbia University Molecular Screening Center, 2008).

The source made the active and inactive calls. No rule for the calls is given here.

One experiment is described as follows: modifiers of cytoskeleton assembly, confirmation, imaging, high-content imaging, retest and dose response (AID 1249).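 Also: compound exposure lasted 24 h before fixation.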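 As to inhibition: plate controls were untreated cells for no effect and reference compound treated cells for full effect.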 Conditions: cell-based imaging, cytoskeleton assembly phenotype, high content; at 2 µM; stronger effect = higher value.
As for `FC(F)(F)c1cc(-c2ccc3c(c2)OCO3)nc(NCc2ccco2)n1`, the inhibition was -1.9% (inactive).

With `O=[N+]([O-])c1ccc(O)c(/C=N/Nc2ccc(Cl)nn2)c1`, the inhibition is -6.8% (inactive).

As to `Cc1nn(CC(=O)Nc2ccc(C(=O)N(C)C)cc2)c(=O)c2ccccc12`, the inhibition was 4.3% (inactive).

On to `CCOC(=O)Cc1csc(NC(=O)COc2ccc(N(C)S(=O)(=O)c3ccc(C)cc3)cc2)n1`, for which the inhibition was 0% (inactive).

For the compound `OCCCCNc1cccc2ccccc12`, the inhibition is -7.2% (inactive).

Take `CCNCC(O)COCC(O)CNCC` (centres undefined): the inhibition is 5.1% (inactive).

On to `CCc1ccc(C(=O)/C=C/c2ccc([N+](=O)[O-])o2)cc1`, for which the inhibition is -3.9% (inactive).

As to `C#CC(=O)N(c1cccc(OC)c1)C(C(=O)NC1CCCC1)c1cccs1` (centres undefined), the inhibition was -5.8% (inactive).

With `O=[N+]([O-])/C=C/c1c(OCc2ccccc2)ccc2ccccc12`, the inhibition was -14.2% (inactive).

As to `COc1ccccc1C(=O)Nc1ccc2c(c1)nc(CN1CCN(C(C)=O)CC1)n2C`, the inhibition is 5.7% (inactive).

Take `O=c1[nH]c2cccnc2n1Cc1ccccc1`: the inhibition was -3.8% (inactive).

Turning to `Nc1cc(=O)nc(SCc2ccccc2)n1Cc1ccco1`, the inhibition is 3.5% (inactive).

For the compound `N#Cc1c(NCc2ccccc2)ccnc1NCc1cccnc1`, the inhibition is 1.2% (inactive).

In the case of `O=C(O)C1CC=CCC1C(=O)N1CCCC1` (centres undefined), the inhibition is 5.5% (inactive).

`O=C(N/N=C/C=C/c1ccccc1)c1n[nH]c2c1CCC2`: the inhibition is 2% (inactive).

Take `Cn1c(SCC(=O)NC2CCCCC2)nnc1-c1cccc(N)c1`: the inhibition was -8.2% (inactive).

As for `COC(=O)C1C(=O)C2=C(CC1C)NC(=O)CC2c1cccc(C)c1` (centres undefined), the inhibition was -3.5% (inactive).

Consider `CC1CCCN(c2nc3ccsc3c(=O)s2)C1` (centres undefined), for which the inhibition is 2.9% (inactive).

For `CC(C)(C)NS(=O)(=O)c1ccc(Oc2ncc(C(F)(F)F)cc2Cl)cc1`, the inhibition was 12.1% (inactive).

Regarding `CC(=O)c1cccc(Nc2nc(-c3cccc([N+](=O)[O-])c3)cs2)c1`, the inhibition is -7.7% (inactive).

With `COc1cc(CNCc2ccco2)ccc1OCc1ccccc1`, the inhibition was -7.5% (inactive).

Turning to `CC(/C=C/c1ccco1)=N\NC(=O)c1cc(C)[nH]n1`, the inhibition is -14.4% (inactive).

Take `CCCOc1ccc(C(=O)C(CN2CCOCC2)c2ccccc2)cc1` (centres undefined): the inhibition was 4.4% (inactive).

Consider `CCOC(=O)C1CCN(Cc2ccccc2C)CC1`, for which the inhibition was 5.4% (inactive).

As to `CCOC(=O)N1CCN(C(=O)COc2ccc(Cl)cc2C)CC1`, the inhibition is 0.3% (inactive).

On to `Cc1cc(NC(=O)C(=O)NCCN2CCN(C(=O)c3cccs3)CC2)ccc1Br`, for which the inhibition is 0.6% (inactive).

As to `Cc1cc(NC(=O)C2C3C=CC(C3)C2C(=O)O)no1` (centres undefined), the inhibition was 0.1% (inactive).

As for `Oc1ccc(Nc2nc3ccccc3nc2Nc2ccc(O)cc2)cc1`, the inhibition was -1.9% (inactive).

For `CCOc1ccc(NC(=O)C2CCN(C(=O)NC3CCCCC3)CC2)cc1`, the inhibition is -1.9% (inactive).

As for `CC(C)(C)NC(=O)CSc1nsc(SCC(=O)NC(C)(C)C)c1C#N`, the inhibition was -0.7% (inactive).

With `O=C1N2CCSC2=NC1(Nc1ccccn1)C(F)(F)F` (centres undefined), the inhibition is -0.2% (inactive).

In the case of `Cn1cccc1C(=O)OCC(=O)Nc1cc(C(C)(C)C)nn1-c1ccccc1`, the inhibition is -17.7% (inactive).

`O=C(O)c1c[nH]c2ccc(S(=O)(=O)N3CCOCC3)cc12`: the inhibition is -7.4% (inactive).

Take `COc1ccc(CS(=O)(=O)/C(Cl)=C(/Cl)C(=O)Nc2ccc(OC)nc2)cc1`: the inhibition was -6.2% (inactive).

For `CC(=O)N1CN2CN(C(C)=O)CC(C(=O)c3ccccc3)(C2)C1`, the inhibition is -10.6% (inactive).

Turning to `COc1ccc(S(=O)(=O)Nc2cc3c(C(C)=O)c(C)oc3c3ccccc23)cc1`, the inhibition is -5.1% (inactive).

Turning to `CC1(C)OC(=O)C(=NNc2ccc(O)cc2)C(=O)O1`, the inhibition is -11.1% (inactive).

Take `CCN1/C(=C\C=C\C2=[N+](CC)c3ccccc3C2(C)C)C(C)(C)c2ccccc21`: the inhibition was -15.4% (inactive).

As to `Cc1nc(S(=O)(=O)N(C)Cc2ccccc2)c(C#N)c(C)c1Cl`, the inhibition was -5.1% (inactive).

With `COc1ccc(C2=Nn3c(nnc3-c3ccccc3OC)SC2)cc1OC`, the inhibition is 0.9% (inactive).

Take `O=C(CCSc1nnc2scc(-c3ccccc3)n12)Nc1nc(-c2ccccc2)ns1`: the inhibition is -3.3% (inactive).

On to `CCOC1=NC(C(=O)O)c2ccccc2/C(=C(/C)Cl)N1` (centres undefined), for which the inhibition is -4.3% (inactive).

For `O=C(O)C1CCC(N2C(=O)C3CCCCC3C2=O)CC1` (centres undefined), the inhibition is -0.4% (inactive).

With `O=C(Cn1cccc1C(=O)c1ccccc1)NCCN1CCOCC1`, the inhibition is -4.4% (inactive).

In the case of `NC1=CC(=O)c2cccc3cccc1c23`, the inhibition was -0.4% (inactive).

For `CCCCn1cnc2c1c(=O)[nH]c(=O)n2CCCC`, the inhibition was -11.3% (inactive).

As to `CC(=O)Nc1nc2cc3c(cc2s1)OCO3`, the inhibition is 1.3% (inactive).

For `CC1=C(C(=O)OCCOC(C)C)C(c2cccnc2)C2=C(CCCC2=O)N1` (centres undefined), the inhibition is -18.2% (inactive).

For `CO/N=C/C(=N\Nc1ccc(C)cc1)C(=O)c1ccc(OC)cc1`, the inhibition is -0.5% (inactive).

For the compound `CCC1=NC(c2ccccc2Cl)N(O)C1(C)C` (centres undefined), the inhibition is 7.9% (inactive).

Consider `CNC(=O)c1ccccc1NC(=O)c1ccco1`, for which the inhibition is 0.5% (inactive).

On to `O=C(CS(=O)c1ccc(C(F)(F)F)cc1[N+](=O)[O-])Oc1ccc(Cl)cc1` (centres undefined), for which the inhibition is 5.2% (inactive).

As for `O=C(Nc1ccccc1)N1CCC(c2ccccc2)C1` (centres undefined), the inhibition is -9.2% (inactive).

As for `CCCOC(=O)CSC1=C(C#N)C(c2ccccc2OC)C(C#N)C(=O)N1` (centres undefined), the inhibition is -1.7% (inactive).

`CCOC(=O)/C(=C\c1cccnc1)C(=O)c1cc(C(C)=O)c(Nc2ccccc2)s1`: the inhibition was 5.1% (inactive).

Consider `COc1ccc(C(=O)c2c(C(F)(F)F)oc3c2C(=O)c2ccccc2C3=O)cc1`, for which the inhibition was -14.9% (inactive).

As to `CSc1nnc2n(-c3ccccc3)c(=O)c3c4c(sc3n12)CCC4`, the inhibition was 8.1% (inactive).

`CCOC(=O)C1=C(c2ccccc2)OC(N)=C(C#N)C1c1ccco1` (centres undefined): the inhibition was -12.1% (inactive).

With `Cc1cc(C)n(-c2nc(-c3cccc(Cl)c3)cs2)n1`, the inhibition was -10.2% (inactive).

As for `O=C(Nc1ccccc1)c1nnsc1S(=O)c1ccc(Cl)cc1` (centres undefined), the inhibition was -0.9% (inactive).

For `O=C1CC(N2CCN(Cc3ccc4c(c3)OCO4)CC2)C(=O)N1c1ccccc1` (centres undefined), the inhibition was -6.6% (inactive).

On to `CC1=C(C#N)C(Nc2cccc(C)n2)(C(F)(F)F)C(=O)N1` (centres undefined), for which the inhibition was 7% (inactive).

Regarding `O=C(O)c1ccccc1Nc1ccccc1C(=O)O`, the inhibition was 0.6% (inactive).

For the compound `COc1cc2c3c(c1OC)-c1cc(O)ccc1CC3NCC2` (centres undefined), the inhibition is -1.7% (inactive).

Turning to `Cc1cc(NC(=O)CSc2nc3ccccc3c(=O)n2C2CCCC2)no1`, the inhibition is 6.7% (inactive).

Turning to `C=CCn1c(COc2ccc(Cl)cc2)nnc1SCC(=O)N/N=C/c1cccc(O)c1`, the inhibition is -5.9% (inactive).

As for `O=C(C1CCC1)N1CCc2cc(S(=O)(=O)Nc3ccc4c(c3)OCCO4)ccc21`, the inhibition was 3.8% (inactive).

On to `CC(=NCCCO)c1c(O)n(Cc2ccccc2)c(=O)[nH]c1=O`, for which the inhibition was 3.6% (inactive).

On to `COC(=O)c1c(NC(=O)c2ccc(S(=O)(=O)N3CCOCC3)cc2)sc2c1CCN(C)C2`, for which the inhibition is -2.4% (inactive).

For `Nc1ccc2c3c(cccc13)CC2`, the inhibition is -5.4% (inactive).

`COC(=O)c1ccccc1NC(=O)c1ccc(-c2cccc(Cl)c2)o1`: the inhibition was 2.6% (inactive).

For the compound `COc1ccc(-c2cc(C(F)(F)F)nc(S(=O)(=O)CCC(=O)N3CCOCC3)n2)cc1`, the inhibition is 0% (inactive).

Regarding `CCCNS(=O)(=O)c1ccc2c(c1)CCCN2C(C)=O`, the inhibition was -1.4% (inactive).

Consider `O=c1n(Cc2ccccc2F)c2ccccc2n1Cc1ccccc1F`, for which the inhibition is 5.3% (inactive).

For the compound `COc1ccc(OC)c(N(CC(=O)Nc2ccccc2)S(C)(=O)=O)c1`, the inhibition was 16.3% (inactive).

Consider `CCCCNC(=O)CSc1cc(=O)n(C)c2ccccc12`, for which the inhibition is -21.1% (inactive).

On to `CCOc1ccccc1N1C(=O)NC(=O)C(CCc2ccncc2)(CCc2ccncc2)C1=O`, for which the inhibition was -4.8% (inactive).

`CCCn1c(SCC(=O)NCc2ccco2)nnc1C(C)C`: the inhibition is -5.7% (inactive).

As for `COc1ccc(OC)c(C(=O)c2coc3ccc(O)cc23)c1`, the inhibition is -8.7% (inactive).

As to `CC(C)Sc1nc2c(c(=O)n1-c1ccc(F)cc1)SCC2`, the inhibition was -6.3% (inactive).

With `CCCC(=O)Nc1ccc(Cl)c(NC(=O)CC)c1`, the inhibition was -2% (inactive).

Take `CCOc1cc(-c2conc2N)cc(OCC)c1OCC`: the inhibition was 10.2% (inactive).

As to `CCn1c(SCC(=O)NC(C)c2ccccc2)nc2ccccc21` (centres undefined), the inhibition was 0.7% (inactive).

Regarding `Cc1ccc(OCC(O)CN2CCN(CC(O)COc3ccc(C)cc3)CC2)cc1` (centres undefined), the inhibition is 10.9% (inactive).

On to `Cc1ncc(CO)c2cc(C(N)=O)c(=Nc3ccccc3)oc12`, for which the inhibition was -1.3% (inactive).

With `Cc1ccc(Nc2nc(CSc3nnnn3C)cs2)cc1`, the inhibition was -5.6% (inactive).

Take `Cc1cc(C)cc(-n2nnnc2SCC(=O)Nc2nc(-c3ccc(Cl)cc3)cs2)c1`: the inhibition was -9.2% (inactive).

With `N=c1c2c(-c3ccccc3)c(-c3ccccc3)n(Cc3ccccc3)c2ncn1CCCn1ccnc1`, the inhibition was -9.6% (inactive).

Still in this experiment, the particulars now being: cell-based imaging, cytoskeleton assembly phenotype, high content; cell count; at 10 µM; stronger effect = lower value.
`COc1cc(C(=O)N/N=C/c2ccsc2C)cc(OC)c1OC` registered a cell count of 34.2%.

Broadly, the inhibition is the drop in the measured response relative to a control, in per cent.
